Source: ChEMBL document CHEMBL3621203, “Discovery and Structure Enabled Synthesis of 2,6-Diaminopyrimidin-4-one IRAK4 Inhibitors” (ACS Med Chem Lett, 2015)
Converted amounts (≈) assume the structure as drawn. The source made the active and inactive calls. The rule behind the calls is not given here.

Tests used:
[1] = target: T1, Interleukin-1 receptor-associated kinase 4 (Homo sapiens, UniProt Q9NWZ3); experiment: Inhibition of IRAK4 (unknown origin) using 5FAM-RKRQGSVRRRVHCCOOH as substrate after 30 mins by IMAP assay
T1 sequence (Q9NWZ3 whole entry): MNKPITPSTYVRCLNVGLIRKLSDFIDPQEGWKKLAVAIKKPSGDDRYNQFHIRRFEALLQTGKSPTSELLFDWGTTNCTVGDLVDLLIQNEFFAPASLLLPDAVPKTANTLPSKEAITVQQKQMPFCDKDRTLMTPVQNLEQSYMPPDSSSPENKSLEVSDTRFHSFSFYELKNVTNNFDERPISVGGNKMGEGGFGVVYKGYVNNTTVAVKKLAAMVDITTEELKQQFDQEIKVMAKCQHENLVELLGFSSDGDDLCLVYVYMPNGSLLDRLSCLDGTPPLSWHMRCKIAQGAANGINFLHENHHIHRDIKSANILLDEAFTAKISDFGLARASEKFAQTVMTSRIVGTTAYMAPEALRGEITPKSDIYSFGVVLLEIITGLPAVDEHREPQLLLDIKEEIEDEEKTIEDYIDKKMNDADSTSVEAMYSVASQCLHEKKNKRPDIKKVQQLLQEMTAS

[2] = Kinetic solubility of the compound at pH 7; format: physicochemical; details: buffer
[3] = Oral bioavailability in Wistar Han rat at 10 mg/kg; format: ADME, organism-based; details: in vivo
[4] = Clearance in Wistar Han rat at 1 mg/kg, iv; format: ADME, organism-based; details: in vivo
[5] = target: T1, Interleukin-1 receptor-associated kinase 4; experiment: Inhibition of IRAK4-mediated NFkappaB activation in human THP1-XBlue cells assessed as LPS-induced secreted embryonic alkaline phosphatase activity treated 1 hr before LPS challenge measured after 5 hrs by spectrophotometer analysis; format: cell-based, THP-1
[6] = Apparent permeability of the compound across pig LLC-PK1 cells; format: ADME, cell-based, Sus scrofa
[7] = target: Receptor-type tyrosine-protein kinase FLT3 (Homo sapiens) (UniProt P36888); experiment: Inhibition of FLT3 (unknown origin)
Receptor-type tyrosine-protein kinase FLT3 (Homo sapiens), sequence (P36888 whole entry): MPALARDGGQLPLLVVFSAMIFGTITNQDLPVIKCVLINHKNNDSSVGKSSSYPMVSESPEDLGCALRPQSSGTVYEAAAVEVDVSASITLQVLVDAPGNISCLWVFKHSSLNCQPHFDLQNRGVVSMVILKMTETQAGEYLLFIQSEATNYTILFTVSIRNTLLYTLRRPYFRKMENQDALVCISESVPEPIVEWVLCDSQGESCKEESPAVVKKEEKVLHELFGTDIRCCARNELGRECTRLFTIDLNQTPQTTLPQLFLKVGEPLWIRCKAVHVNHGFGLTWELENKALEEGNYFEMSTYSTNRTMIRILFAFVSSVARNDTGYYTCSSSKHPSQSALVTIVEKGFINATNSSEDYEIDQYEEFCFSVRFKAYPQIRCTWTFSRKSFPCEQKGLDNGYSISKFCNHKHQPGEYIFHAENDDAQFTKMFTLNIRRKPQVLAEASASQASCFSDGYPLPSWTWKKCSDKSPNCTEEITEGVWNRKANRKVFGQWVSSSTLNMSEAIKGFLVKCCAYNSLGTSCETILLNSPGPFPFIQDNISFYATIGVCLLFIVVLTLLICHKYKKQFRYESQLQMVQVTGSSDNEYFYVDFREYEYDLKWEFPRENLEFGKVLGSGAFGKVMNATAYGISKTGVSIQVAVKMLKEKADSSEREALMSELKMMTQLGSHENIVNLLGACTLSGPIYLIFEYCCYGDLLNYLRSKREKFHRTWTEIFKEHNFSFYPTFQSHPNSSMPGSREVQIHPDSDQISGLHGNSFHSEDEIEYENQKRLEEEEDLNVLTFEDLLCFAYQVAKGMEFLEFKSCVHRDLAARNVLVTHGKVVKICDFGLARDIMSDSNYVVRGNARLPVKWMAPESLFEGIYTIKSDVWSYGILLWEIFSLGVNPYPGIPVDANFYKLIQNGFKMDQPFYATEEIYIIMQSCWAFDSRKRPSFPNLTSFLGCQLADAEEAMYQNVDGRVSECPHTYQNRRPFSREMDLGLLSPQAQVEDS

Row | Compound | IC50 [1] [nM] | solubility kinetic [2] [µM] | bioavailability [3] [%] | clearance [4] [mL/min/kg] | IC50 [5] [nM] | Papp [6] [×10⁻⁶ cm/s] | inhibition [7]
1 | OC[C@H]1C[C@@H](Nc2nc(NC3CC3)ncc2-c2nc3ccccc3s2)[C@H](O)[C@@H]1O | 470 |  |  |  |  |  | 
2 | O=c1[nH]c(N2CCOCC2)nc(N[C@H]2CNC[C@H](O)C2)c1-c1nc2ccccc2s1 |  | 8 (≈ 3.43 µg/mL) | 2 | 43 | 333 | 9 | 
3 | C[C@H]1CC[C@@H](Nc2nc(N3CCOCC3)[nH]c(=O)c2-c2nc3ccccc3s2)CN1 | 565 |  |  |  |  |  | 
4 | CN(C)c1nc(N[C@@H]2C[C@H](CO)[C@@H](O)[C@H]2O)c(-c2nc3ccccc3s2)c(=O)[nH]1 | 490 |  |  |  |  |  | 
5 | O=c1[nH]c(N2CCC2)nc(N[C@@H]2C[C@H](CO)[C@@H](O)[C@H]2O)c1-c1nc2ccccc2s1 |  | 23 (≈ 9.88 µg/mL) | 4 | 75 | 292 | 18 | 
6 | CCc1nc(N[C@@H]2C[C@H](CO)[C@@H](O)[C@H]2O)c(-c2nc3ccccc3s2)c(=O)[nH]1 | 972 |  |  |  |  |  | 
7 | O=c1[nH]c(N2CCOCC2)nc(N[C@@H]2CCCNC2)c1-c1nc2ccccc2s1 |  | 21 (≈ 8.66 µg/mL) | 13 | 45 |  | 29 | 
8 | C[C@@H]1CC[C@@H](Nc2nc(N3CCOCC3)[nH]c(=O)c2-c2nc3ccccc3s2)CN1 | 93 | 13 (≈ 5.55 µg/mL) | 42 | 51 | 580 | 15 | 
9 | CSc1nc(N[C@@H]2C[C@H](CO)[C@@H](O)[C@H]2O)c(-c2nc3ccccc3s2)c(=O)[nH]1 | 352 |  |  |  |  |  | 
10 | O=c1[nH]c(N2CCOCC2)nc(N[C@@H]2C[C@H](CO)[C@@H](O)[C@H]2O)c1-c1nc2ccccc2s1 |  | 63 (≈ 29 µg/mL) | 0 | 98 |  | 7 | 
11 | O=c1[nH]c(N2CCc3ccccc3C2)nc(N[C@@H]2C[C@H](CO)[C@@H](O)[C@H]2O)c1-c1nc2ccccc2s1 | 27 | 12 (≈ 6.07 µg/mL) | 0 | 88 | 141 | 5 | Active
12 | O=c1[nH]c(N2CCCC2)nc(N[C@@H]2C[C@H](CO)[C@@H](O)[C@H]2O)c1-c1nc2ccccc2s1 |  | 26 (≈ 11.5 µg/mL) |  |  | 78 | 12 | 
